Source: patent US20050124632A1, “Remedies and/or preventives for diabetic ischemic heart diseases” (priority 2001, published 2005)

Experiments:
[1] = system: contractile protein system; experiment: Relation between Ca concentration and contractile force in saponin-skinned papillary muscle fibers under acidosis (pH 6.6); format: cell-based, Wistar rats; details: for Hill n / Maximum Force / PCa50 / Resting Force: acidosis (pH6.6) + 1 μM MCC-135
Experimental: Diabetic cardiomyopathy model is prepared in a similar manner to that in Example 1. The rats 7 months after the administration of STZ were subjected to the experiments in a similar manner to that in Example 1. The rats were sacrificed and the hearts of the rats were isolated 7 months after the administration of STZ. The following experiment was conducted according to the method of Kitada et al. which is the same as that in the Example 1. Left ventricular papillary muscles were cut off from the isolated heart in an ice cooled Krebs-Henseleit solution, and contraction-relaxation function of the papillary muscles was measured by Magnus method. Some of the papillary muscles were applied to a functional analysis on a relation between various calcium ion (Ca) concentrations and contractile force by skinned fiber method with saponin treatment. Acidosis was induced by lowering the pH of the solution from 7.0 in normal to 6.6. A mode of change of relation between the various calcium ion (Ca) concentrations and the contractile forces in the presence or absence of MCC-135 was studied.

[2] = system: Ca leakage from sarcoplasmic reticulum; experiment: Ca leakage from sarcoplasmic reticulum in saponin-skinned papillary muscle fiber preparations (caffeine-induced tension as index); format: cell-based, Wistar rats; details: MCC-135 10^-7 M to 10^-5 M, skinned fiber preparation
Experimental: Diabetic cardiomyopathy was induced in 7-week old Wistar rats by an intravenous injection of 40 mg/kg of Streptozotocin via each tail (purchased from Sigma, hereinafter may be referred to as “STZ”) (J. Exp. Med., 1979, 149: 623-631). Since a severe cardiac dysfunction is observed 5 to 6 months after the administration of STZ (Malone, J. I., Schocken, D. D., Morrison, A. D., Gilbert-Barness, E., Diabetic cardiomyopathy and carnitine deficiency. J-Diabetes-Complications. 1999, 13(2): 86-90), the rats were subjected to the experiments 7 months after the administration of STZ. The rats were sacrificed and the hearts of the rats were isolated 7 months after the administration of STZ. The following experiment was conducted according to the method of Kitada et al. (J. Pharmacol. Exp. Ther. 1987, 243: 633-638). Skinned fiber preparations were prepared by saponin treatments of papillary muscles of the hearts isolated from the rats 7 months after the administration of STZ and the control rats. A medium for the preparations was changed from Ca (calcium ion) free buffer solution to a solution of pCa 6.7 to have sarcoplasmic reticulum uptake a certain amount of Ca in the presence of ATP. […]

Structure (SMILES): Cc1ccc(N2CCNCC2)c(S(=O)(=O)O)c1.O [MCC-135, 5-methyl-2-(1-piperazinyl)benzenesulfonic acid monohydrate]
- effect on the action of acidosis on cardiac muscle ([1]; diabetic cardiomyopathy): blocked the action of acidosis in the diabetic cardiomyopathy
- effect on the action of acidosis on cardiac muscle ([1]; normal hearts): had no effect on the action of acidosis on the normal hearts
- Hill n ([1]; normal rat): 3.17 ± 0.42
- Maximum Force ([1]; normal rat): 0.371 ± 0.027 mN/mm^2
- PCa50 ([1]; normal rat): 5.43 ± 0.01
- Resting Force ([1]; normal rat): 0 ± 0 n.s mN/mm^2
- Hill n ([1]; rat with cardiomyopathy): 2.12 ± 0.20
- Maximum Force ([1]; rat with cardiomyopathy): 0.286 ± 0.020**, *** mN/mm^2
- PCa50 ([1]; rat with cardiomyopathy): 5.55 ± 0.07
- Resting Force ([1]; rat with cardiomyopathy): 0.000 ± 0.000**, *** mN/mm^2
- effect on Ca leakage from sarcoplasmic reticulum ([2]; normal rats): had no effect
- effect on Ca leakage from sarcoplasmic reticulum ([2]; rats with diabetic cardiomyopathy (STZ, 7 months)): inhibited Ca leakage from the sarcoplasmic reticulum with diabetic cardiomyopathy in a concentration-dependant manner
